# Key:
# [1] = target: T1, Muscarinic acetylcholine receptor M1 (Homo sapiens, UniProt P11229); format: functional, cell-based
# T1 sequence (P11229 whole entry): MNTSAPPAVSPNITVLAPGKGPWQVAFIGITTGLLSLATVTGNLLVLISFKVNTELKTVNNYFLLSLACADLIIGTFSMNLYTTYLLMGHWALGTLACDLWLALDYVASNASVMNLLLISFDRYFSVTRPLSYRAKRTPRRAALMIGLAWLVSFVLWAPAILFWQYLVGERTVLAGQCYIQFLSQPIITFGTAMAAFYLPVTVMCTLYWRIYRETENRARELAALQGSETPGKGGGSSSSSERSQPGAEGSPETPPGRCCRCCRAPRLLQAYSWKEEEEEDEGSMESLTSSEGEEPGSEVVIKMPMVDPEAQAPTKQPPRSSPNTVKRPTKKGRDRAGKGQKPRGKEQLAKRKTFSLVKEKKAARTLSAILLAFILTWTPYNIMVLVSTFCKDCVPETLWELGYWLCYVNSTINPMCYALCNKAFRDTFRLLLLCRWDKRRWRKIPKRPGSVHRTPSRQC
# [2] = target: Prostaglandin G/H synthase 1 (Homo sapiens, UniProt P23219); format: functional
# [3] = target: D(1A) dopamine receptor (Homo sapiens, UniProt P21728); format: functional, cell-based
# [4] = target: T2, Equilibrative nucleoside transporter 1 (Homo sapiens, UniProt Q99808)
# T2 sequence (Q99808 whole entry): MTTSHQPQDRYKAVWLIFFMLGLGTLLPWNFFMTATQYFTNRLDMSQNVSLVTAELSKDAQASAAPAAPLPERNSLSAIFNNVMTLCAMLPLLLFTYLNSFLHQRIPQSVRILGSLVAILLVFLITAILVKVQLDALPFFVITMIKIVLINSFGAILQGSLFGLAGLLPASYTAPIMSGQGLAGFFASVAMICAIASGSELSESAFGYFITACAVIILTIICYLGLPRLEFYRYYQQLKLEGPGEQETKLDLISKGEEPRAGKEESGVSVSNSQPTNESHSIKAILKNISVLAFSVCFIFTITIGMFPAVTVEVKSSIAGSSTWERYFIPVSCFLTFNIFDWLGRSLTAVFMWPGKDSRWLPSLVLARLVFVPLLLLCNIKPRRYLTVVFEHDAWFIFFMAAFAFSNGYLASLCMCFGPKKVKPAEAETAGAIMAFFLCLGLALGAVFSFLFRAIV
# [5] = target: Vasopressin V2 receptor (Homo sapiens, UniProt P30518)
# [6] = target: T3, Glucocorticoid receptor (Homo sapiens, UniProt P04150)
# T3 sequence (P04150 whole entry): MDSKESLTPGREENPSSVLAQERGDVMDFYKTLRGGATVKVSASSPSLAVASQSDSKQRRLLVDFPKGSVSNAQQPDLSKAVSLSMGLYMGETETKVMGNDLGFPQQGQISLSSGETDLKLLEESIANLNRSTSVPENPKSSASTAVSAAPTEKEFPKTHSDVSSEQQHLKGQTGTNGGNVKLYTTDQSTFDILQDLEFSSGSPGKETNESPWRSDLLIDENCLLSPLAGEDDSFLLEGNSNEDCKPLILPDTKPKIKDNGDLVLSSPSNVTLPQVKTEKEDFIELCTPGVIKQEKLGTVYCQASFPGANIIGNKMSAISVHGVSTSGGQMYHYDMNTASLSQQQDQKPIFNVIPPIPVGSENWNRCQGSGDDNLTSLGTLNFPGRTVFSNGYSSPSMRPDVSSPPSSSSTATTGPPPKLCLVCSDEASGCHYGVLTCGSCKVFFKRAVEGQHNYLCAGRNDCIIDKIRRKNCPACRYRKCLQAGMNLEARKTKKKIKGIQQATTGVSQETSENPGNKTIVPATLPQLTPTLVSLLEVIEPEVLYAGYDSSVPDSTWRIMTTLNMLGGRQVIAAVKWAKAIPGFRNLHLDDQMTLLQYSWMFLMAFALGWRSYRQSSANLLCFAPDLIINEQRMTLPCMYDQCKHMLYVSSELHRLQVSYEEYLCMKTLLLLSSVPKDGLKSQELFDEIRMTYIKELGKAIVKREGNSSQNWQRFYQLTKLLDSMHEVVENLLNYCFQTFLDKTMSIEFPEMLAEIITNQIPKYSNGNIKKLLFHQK
# [7] = target: T4, Alpha-2A adrenergic receptor (Homo sapiens, UniProt P08913); format: functional, cell-based
# T4 sequence (P08913 whole entry): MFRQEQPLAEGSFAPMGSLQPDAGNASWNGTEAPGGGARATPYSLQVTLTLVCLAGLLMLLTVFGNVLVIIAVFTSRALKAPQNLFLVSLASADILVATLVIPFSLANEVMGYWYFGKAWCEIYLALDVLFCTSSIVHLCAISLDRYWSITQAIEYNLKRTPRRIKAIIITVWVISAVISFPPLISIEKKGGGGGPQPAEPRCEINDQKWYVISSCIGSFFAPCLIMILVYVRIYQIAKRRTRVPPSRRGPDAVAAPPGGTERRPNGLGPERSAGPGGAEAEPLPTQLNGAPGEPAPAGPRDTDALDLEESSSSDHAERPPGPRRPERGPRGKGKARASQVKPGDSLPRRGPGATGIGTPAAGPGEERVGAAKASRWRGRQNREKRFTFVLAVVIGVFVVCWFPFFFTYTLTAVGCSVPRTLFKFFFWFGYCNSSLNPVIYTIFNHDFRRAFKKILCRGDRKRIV
# [8] = target: T5, Alpha-1A adrenergic receptor (Homo sapiens, UniProt P35348); format: functional, cell-based
# T5 sequence (P35348 whole entry): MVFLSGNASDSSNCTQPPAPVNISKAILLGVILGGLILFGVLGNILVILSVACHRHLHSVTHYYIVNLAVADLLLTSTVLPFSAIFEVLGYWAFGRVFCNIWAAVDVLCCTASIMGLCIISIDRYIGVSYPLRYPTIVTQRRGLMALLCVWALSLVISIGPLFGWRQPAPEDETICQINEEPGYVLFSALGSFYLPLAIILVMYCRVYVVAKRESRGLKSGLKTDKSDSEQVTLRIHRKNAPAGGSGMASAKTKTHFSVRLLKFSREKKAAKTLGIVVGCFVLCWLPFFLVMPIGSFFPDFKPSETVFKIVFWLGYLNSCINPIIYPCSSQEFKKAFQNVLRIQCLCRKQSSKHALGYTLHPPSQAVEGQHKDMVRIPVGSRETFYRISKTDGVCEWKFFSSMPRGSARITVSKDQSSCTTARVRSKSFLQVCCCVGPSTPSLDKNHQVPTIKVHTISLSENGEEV
# Note: assay procedure not described here.
# Prostaglandin G/H synthase 1, sequence (P23219 whole entry): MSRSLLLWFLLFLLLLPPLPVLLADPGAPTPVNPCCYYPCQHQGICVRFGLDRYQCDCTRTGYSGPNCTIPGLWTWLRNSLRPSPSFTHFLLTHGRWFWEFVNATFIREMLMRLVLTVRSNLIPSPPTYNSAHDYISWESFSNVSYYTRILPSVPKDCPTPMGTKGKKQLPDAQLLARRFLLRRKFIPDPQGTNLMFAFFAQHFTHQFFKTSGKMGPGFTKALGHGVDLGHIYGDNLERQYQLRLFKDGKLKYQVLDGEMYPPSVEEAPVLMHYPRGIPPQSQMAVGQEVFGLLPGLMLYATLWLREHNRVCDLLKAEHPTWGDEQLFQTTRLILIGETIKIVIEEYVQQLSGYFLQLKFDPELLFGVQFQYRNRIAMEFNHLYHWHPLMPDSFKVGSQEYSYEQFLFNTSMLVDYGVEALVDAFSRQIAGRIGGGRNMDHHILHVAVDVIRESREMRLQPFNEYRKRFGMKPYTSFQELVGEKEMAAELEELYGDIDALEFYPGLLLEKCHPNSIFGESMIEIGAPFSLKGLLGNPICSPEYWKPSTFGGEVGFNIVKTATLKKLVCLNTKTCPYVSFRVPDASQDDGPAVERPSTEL
# D(1A) dopamine receptor, sequence (P21728 whole entry): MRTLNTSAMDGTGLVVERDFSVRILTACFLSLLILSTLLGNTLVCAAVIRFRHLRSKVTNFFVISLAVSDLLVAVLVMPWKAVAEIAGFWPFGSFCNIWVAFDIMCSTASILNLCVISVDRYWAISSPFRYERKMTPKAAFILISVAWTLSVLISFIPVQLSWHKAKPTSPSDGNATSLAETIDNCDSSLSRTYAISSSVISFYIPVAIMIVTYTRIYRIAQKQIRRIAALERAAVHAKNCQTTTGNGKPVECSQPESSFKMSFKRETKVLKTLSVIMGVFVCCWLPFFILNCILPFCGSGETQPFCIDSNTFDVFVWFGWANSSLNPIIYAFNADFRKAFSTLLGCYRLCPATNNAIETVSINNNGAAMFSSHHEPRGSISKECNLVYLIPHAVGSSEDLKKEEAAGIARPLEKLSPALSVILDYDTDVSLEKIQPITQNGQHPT
# Vasopressin V2 receptor, sequence (P30518 whole entry): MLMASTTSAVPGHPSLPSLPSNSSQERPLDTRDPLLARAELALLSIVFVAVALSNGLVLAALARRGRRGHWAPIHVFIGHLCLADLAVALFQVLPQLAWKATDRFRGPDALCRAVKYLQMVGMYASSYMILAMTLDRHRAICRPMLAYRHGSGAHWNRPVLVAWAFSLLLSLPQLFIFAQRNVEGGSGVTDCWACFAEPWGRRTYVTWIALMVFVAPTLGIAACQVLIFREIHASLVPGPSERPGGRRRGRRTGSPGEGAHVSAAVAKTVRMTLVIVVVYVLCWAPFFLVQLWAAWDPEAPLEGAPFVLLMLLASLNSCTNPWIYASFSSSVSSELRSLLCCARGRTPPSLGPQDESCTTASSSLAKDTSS
Compound,AC50 [1],AC50 [2],AC50 [3],AC50 [4],AC50 [5],AC50 [6],AC50 [7],AC50 [8]
Cc1oc(=O)oc1COC(=O)[C@@H]1N2C(=O)[C@@H](NC(=O)[C@H](N)c3ccccc3)[C@H]2SC1(C)C [LENAMPICILLIN],> 30 µM,> 30 µM,,,,,,
c1ccc2c(SC3=NCCN3)c[nH]c2c1 [TINAZOLINE],> 30 µM,> 30 µM,,,,,,
CC(OCCN1CCCCCC1)(c1ccccc1)c1ccc(Cl)cc1 (stereo unspecified) [SETASTINE],> 30 µM,> 30 µM,,,,,,
COC(=O)[C@H]1[C@H]2C[C@@H]3c4[nH]c5cc(OC)ccc5c4CCN3C[C@H]2C[C@@H](OC(=O)c2cc(OC)c(OC)c(OC)c2)[C@@H]1OC [RESERPINE],,> 10 µM,> 10 µM,28.5 µM,> 10 µM,> 10 µM,> 10 µM,
COc1cc(C)c2c(Oc3cccc(C(F)(F)F)c3)c(OC)cc(NC(C)CCCN)c2n1 (stereo unspecified) [TAFENOQUINE],> 3 µM,9.38 µM,,,,,,
NC(=O)[C@@H]1CC[C@@H]2CN1C(=O)N2OS(=O)(=O)O [AVIBACTAM],> 30 µM,> 30 µM,,,,,,
O=C(CCC/C=C\C[C@@H]1[C@@H](CC[C@@H](O)CCc2ccccc2)[C@H](O)C[C@@H]1O)OCCCCO[N+](=O)[O-] [LATANOPROSTENE BUNOD],> 30 µM,> 30 µM,,,,,,
NC[C@H]1CC[C@H](C(=O)Oc2ccc(CCC(=O)O)cc2)CC1 [CETRAXATE],,> 30 µM,> 30 µM,,,,> 30 µM,> 30 µM
CC(=O)OC[C@H]1O[C@@H](n2ncc(=O)[nH]c2=O)[C@H](OC(C)=O)[C@@H]1OC(C)=O [AZARIBINE],,> 30 µM,,,,,,
CC(O)(CS(=O)(=O)c1ccc(F)cc1)C(=O)Nc1ccc(C#N)c(C(F)(F)F)c1 (stereo unspecified) [BICALUTAMIDE],,> 30 µM,> 10 µM,> 30 µM,> 30 µM,> 30 µM,> 10 µM,> 30 µM
COc1cccc(C(=O)CCN[C@@H](C)[C@H](O)c2ccccc2)c1 [OXYFEDRINE],> 30 µM,> 30 µM,,,,,,
C[C@H](N[C@@H](CCc1ccccc1)C(=O)O)C(=O)N1Cc2ccccc2C[C@H]1C(=O)O,> 30 µM,> 30 µM,,,,,,
N#Cc1ccc(Oc2ccc3c(c2)COB3O)cc1 [CRISABOROLE],> 30 µM,> 30 µM,,,,,,
CC(COc1ccccc1)NC(C)C(O)c1ccc(O)cc1 (stereo unspecified) [ISOXSUPRINE],> 30 µM,> 30 µM,,,,,,
Cc1cn([C@H]2O[C@@H](CO)[C@H](O)[C@H]2F)c(=O)[nH]c1=O [CLEVUDINE],> 30 µM,> 30 µM,,,,,,
COc1ccc2c(C(=S)N(C)CC(=O)O)cccc2c1C(F)(F)F [TOLRESTAT],,> 30 µM,,,,,,
CC[N+](C)(CC)CCOC(=O)C(O)(c1ccccc1)C1CCCCC1 (stereo unspecified) [OXYPHENONIUM],> 30 µM,> 30 µM,,,,,,

Compound,AC50 [1],AC50 [2],AC50 [3],AC50 [4],AC50 [5],AC50 [6],AC50 [7],AC50 [8]
C[C@@H]1C[C@H]2[C@@H]3C[C@H](F)C4=CC(=O)C=C[C@]4(C)[C@H]3[C@@H](O)C[C@]2(C)[C@@]1(O)C(=O)CO [PARAMETHASONE],> 30 µM,> 30 µM,,,,,,
COc1ccc(OC)c(C(O)C(C)N)c1 (stereo unspecified) [METHOXAMINE],> 30 µM,> 30 µM,,,,,,
CCC[C@H](N[C@@H](C)C(=O)N1[C@H](C(=O)O)C[C@@H]2CCCC[C@@H]21)C(=O)OCC [PERINDOPRIL],> 30 µM,> 30 µM,,,,,,
CC(=O)O[C@]1(C(C)=O)CC[C@H]2[C@@H]3C=C(Cl)C4=CC(=O)[C@@H]5C[C@@H]5[C@]4(C)[C@H]3CC[C@@]21C [CYPROTERONE ACETATE],,> 30 µM,,> 30 µM,> 30 µM,,,
CC(=O)[C@H]1CC[C@H]2[C@@H]3C=CC4=CC(=O)CC[C@@]4(C)[C@@H]3CC[C@]12C [DYDROGESTERONE],> 30 µM,> 30 µM,,,,,,
Clc1ccc(C(Cn2ccnc2)OCc2csc3c(Cl)cccc23)c(Cl)c1 (stereo unspecified) [SERTACONAZOLE],> 30 µM,7.68 µM,,,,,,
CC1(C)S[C@@H]2[C@H](/N=C/N3CCCCCC3)C(=O)N2[C@H]1C(=O)O [AMDINOCILLIN],> 30 µM,14.5 µM,,,,,,
C=C1CC[C@H](O)C/C1=C/C=C1\CCC[C@]2(C)[C@@H]([C@H](C)CCCC(C)C)CC[C@@H]12 [CHOLECALCIFEROL],,22.9 µM,,,,,,
O=S1(=O)CCN(CN2CCS(=O)(=O)NC2)CN1 [TAUROLIDINE],,> 30 µM,> 30 µM,> 30 µM,,> 10 µM,> 30 µM,> 30 µM
O=C(/C=C/c1cccc(S(=O)(=O)Nc2ccccc2)c1)NO [BELINOSTAT],,5.61 µM,,> 30 µM,> 30 µM,> 30 µM,,
CC1=C(C(=O)OC(C)C)C(c2cccc([N+](=O)[O-])c2)C(C(=O)OC2CN(C(c3ccccc3)c3ccccc3)C2)=C(N)N1 (stereo unspecified) [AZELNIDIPINE],,,> 30 µM,> 30 µM,> 30 µM,> 30 µM,> 30 µM,> 30 µM
CC(O)(P(=O)(O)O)P(=O)(O)O [ETIDRONIC ACID],,> 30 µM,,,,,,
Cc1ccc(C(=O)C(C)CN2CCCCC2)cc1 (stereo unspecified) [TOLPERISONE],,> 30 µM,,,,,,
NNCCc1ccccc1 [PHENELZINE],,0.891 µM,,,,,,
CNCCc1ccc(OC(=O)C(C)C)c(OC(=O)C(C)C)c1 [IBOPAMINE],,,0.0442 µM,> 30 µM,> 30 µM,> 30 µM,3.48 µM,0.131 µM
O=C1OC(OC(=O)c2cccnc2Nc2cccc(C(F)(F)F)c2)c2ccccc21 (stereo unspecified) [TALNIFLUMATE],,,> 30 µM,> 30 µM,> 30 µM,> 30 µM,> 30 µM,> 30 µM
CN[C@]1(c2ccccc2Cl)CCCCC1=O [ESKETAMINE],,,> 30 µM,> 30 µM,> 30 µM,> 30 µM,> 30 µM,> 30 µM

# Source: ChEMBL document CHEMBL5291721, “A preclinical secondary pharmacology resource illuminates target-adverse drug reaction associations of marketed drugs” (Nat Commun, 2023)
